Assay [1] in a line: Panel evaluation of a carbonated lemon beverage formulation. Type of assay: in vivo, human. As to conditions: carbonated lemon beverage with stevia. The method, then:
A lemon beverage syrup base was prepared by mixing together the following ingredients:
To a 1 litre portion of the syrup base was added 6 g of sclareolide, ex Avoca (1% w/v ethanolic solution). The mixture was then dilute with 5 litres of carbonated water to provide sclareolide at 10 ppm. This is referred to as sample 6.
To another 1 litre portion of the syrup base was added 0.12 g of sclareolide, ex Avoca (1% w/v ethanolic solution). The mixture was then dilute with 5 litres of carbonated water to provide sclareolide at 0.2 ppm. This is referred to as sample 7.
A third portion of the syrup base was used as is (i.e. with no sclareolide present) and was diluted with 5 litres of carbonated water. This is referred to as sample 8.
30 panellists were then asked to evaluate (i) sample 6 and sample 8 and (ii) sample 7 and sample 8 in a balanced, randomized blind test for Overall Flavor, Sweetness, Tartness/Acidity, Lingering Aftertaste, Metallic/Bitterness, Off-note aftertaste and Liquorice Flavor on an 11-point continuous intensity scale where 0=Imperceptible and 10=Extremely Pronounced.

Assay [2] is described as follows: Trained panel taste evaluation of lemon ice tea beverages. Type of assay: in vivo, human. The following applies: conclusion from Table 3, sclareolide 0.075 wt % in Base B. The protocol: Lemon ice tea beverages were prepared with the following ingredients in the amounts shown (grams). Base A is the full sucrose product (i.e. control sample). Base B is the same as base A except with 50% reduced sucrose and additional stevia sweetener in to provide the same level of sweetness.
The ingredients for each base were mixed together until fully dissolved.
The samples were then evaluated by a trained panel of 10 people. Tasting was performed by a blind and balanced presentation order of the samples with the intensity of acidity, bitterness, sweetness and liquorice all being assessed on a scale of 0 to 5 where 0 represents not perceptible and 5 represents very intense.
The scores were averaged and an analysis of variance was performed to identify significant differences between the samples.

Consider `CC1(C)CCC[C@]2(C)[C@H]3CC(=O)O[C@]3(C)CC[C@@H]12` [sclareolide], for which the masking effect result in assay [1] (sclareolide at 0.2 ppm) was “little or no masking effect observed”. In addition, the masking liquorice notes result in assay [1] (sclareolide at 10 ppm) is on record as “not achieved”. Besides, in assay [2], the “effect on the acidity, bitterness or sweetness of the product” value is listed as “does not appear to have a significant effect” and the “effect on the liquorice taste of the product” value is “significantly reduces the liquorice taste”.

(Values after patent US20130115356A1, “SWEETENER COMPOSITION” (FIRMENICH SA, priority 2010, published 2013).)
